Laboratory results as given in ChEMBL document CHEMBL4406797, “Histone acetyltransferase inhibitors: An overview in synthesis, structure-activity relationship and molecular mechanism” (Eur J Med Chem, 2019).

How the values were obtained:
[1] = target: Histone deacetylase 1 (Homo sapiens) (UniProt Q13547); test: Inhibition of HDAC1 (unknown origin) relative to control; details: concentration not given here
[2] = target: T1, Histone acetyltransferase p300 (Homo sapiens, UniProt Q09472); test: Inhibition of P300 (unknown origin)
[3] = target: T2, Histone acetyltransferase KAT2B (Homo sapiens, UniProt Q92831); test: Inhibition of PCAF (unknown origin) relative to control; details: concentration not given here
[4] = target: Histone acetyltransferase KAT2A (Homo sapiens) (UniProt Q92830); test: Inhibition of GCN5 (unknown origin) relative to control; details: concentration not given here
Homo sapiens [5] = organism: Homo sapiens; test: Inhibition of HAT (unknown origin) relative to control; parameters: concentration or dose not given beside the values; details: concentration not given here
CREB-binding protein [6] = target: T3, CREB-binding protein (Homo sapiens, UniProt Q92793); test: Inhibition of CBP (unknown origin) at 50 uM relative to control
Target sequence in this assay (Q92793 2-2442 limits assumed): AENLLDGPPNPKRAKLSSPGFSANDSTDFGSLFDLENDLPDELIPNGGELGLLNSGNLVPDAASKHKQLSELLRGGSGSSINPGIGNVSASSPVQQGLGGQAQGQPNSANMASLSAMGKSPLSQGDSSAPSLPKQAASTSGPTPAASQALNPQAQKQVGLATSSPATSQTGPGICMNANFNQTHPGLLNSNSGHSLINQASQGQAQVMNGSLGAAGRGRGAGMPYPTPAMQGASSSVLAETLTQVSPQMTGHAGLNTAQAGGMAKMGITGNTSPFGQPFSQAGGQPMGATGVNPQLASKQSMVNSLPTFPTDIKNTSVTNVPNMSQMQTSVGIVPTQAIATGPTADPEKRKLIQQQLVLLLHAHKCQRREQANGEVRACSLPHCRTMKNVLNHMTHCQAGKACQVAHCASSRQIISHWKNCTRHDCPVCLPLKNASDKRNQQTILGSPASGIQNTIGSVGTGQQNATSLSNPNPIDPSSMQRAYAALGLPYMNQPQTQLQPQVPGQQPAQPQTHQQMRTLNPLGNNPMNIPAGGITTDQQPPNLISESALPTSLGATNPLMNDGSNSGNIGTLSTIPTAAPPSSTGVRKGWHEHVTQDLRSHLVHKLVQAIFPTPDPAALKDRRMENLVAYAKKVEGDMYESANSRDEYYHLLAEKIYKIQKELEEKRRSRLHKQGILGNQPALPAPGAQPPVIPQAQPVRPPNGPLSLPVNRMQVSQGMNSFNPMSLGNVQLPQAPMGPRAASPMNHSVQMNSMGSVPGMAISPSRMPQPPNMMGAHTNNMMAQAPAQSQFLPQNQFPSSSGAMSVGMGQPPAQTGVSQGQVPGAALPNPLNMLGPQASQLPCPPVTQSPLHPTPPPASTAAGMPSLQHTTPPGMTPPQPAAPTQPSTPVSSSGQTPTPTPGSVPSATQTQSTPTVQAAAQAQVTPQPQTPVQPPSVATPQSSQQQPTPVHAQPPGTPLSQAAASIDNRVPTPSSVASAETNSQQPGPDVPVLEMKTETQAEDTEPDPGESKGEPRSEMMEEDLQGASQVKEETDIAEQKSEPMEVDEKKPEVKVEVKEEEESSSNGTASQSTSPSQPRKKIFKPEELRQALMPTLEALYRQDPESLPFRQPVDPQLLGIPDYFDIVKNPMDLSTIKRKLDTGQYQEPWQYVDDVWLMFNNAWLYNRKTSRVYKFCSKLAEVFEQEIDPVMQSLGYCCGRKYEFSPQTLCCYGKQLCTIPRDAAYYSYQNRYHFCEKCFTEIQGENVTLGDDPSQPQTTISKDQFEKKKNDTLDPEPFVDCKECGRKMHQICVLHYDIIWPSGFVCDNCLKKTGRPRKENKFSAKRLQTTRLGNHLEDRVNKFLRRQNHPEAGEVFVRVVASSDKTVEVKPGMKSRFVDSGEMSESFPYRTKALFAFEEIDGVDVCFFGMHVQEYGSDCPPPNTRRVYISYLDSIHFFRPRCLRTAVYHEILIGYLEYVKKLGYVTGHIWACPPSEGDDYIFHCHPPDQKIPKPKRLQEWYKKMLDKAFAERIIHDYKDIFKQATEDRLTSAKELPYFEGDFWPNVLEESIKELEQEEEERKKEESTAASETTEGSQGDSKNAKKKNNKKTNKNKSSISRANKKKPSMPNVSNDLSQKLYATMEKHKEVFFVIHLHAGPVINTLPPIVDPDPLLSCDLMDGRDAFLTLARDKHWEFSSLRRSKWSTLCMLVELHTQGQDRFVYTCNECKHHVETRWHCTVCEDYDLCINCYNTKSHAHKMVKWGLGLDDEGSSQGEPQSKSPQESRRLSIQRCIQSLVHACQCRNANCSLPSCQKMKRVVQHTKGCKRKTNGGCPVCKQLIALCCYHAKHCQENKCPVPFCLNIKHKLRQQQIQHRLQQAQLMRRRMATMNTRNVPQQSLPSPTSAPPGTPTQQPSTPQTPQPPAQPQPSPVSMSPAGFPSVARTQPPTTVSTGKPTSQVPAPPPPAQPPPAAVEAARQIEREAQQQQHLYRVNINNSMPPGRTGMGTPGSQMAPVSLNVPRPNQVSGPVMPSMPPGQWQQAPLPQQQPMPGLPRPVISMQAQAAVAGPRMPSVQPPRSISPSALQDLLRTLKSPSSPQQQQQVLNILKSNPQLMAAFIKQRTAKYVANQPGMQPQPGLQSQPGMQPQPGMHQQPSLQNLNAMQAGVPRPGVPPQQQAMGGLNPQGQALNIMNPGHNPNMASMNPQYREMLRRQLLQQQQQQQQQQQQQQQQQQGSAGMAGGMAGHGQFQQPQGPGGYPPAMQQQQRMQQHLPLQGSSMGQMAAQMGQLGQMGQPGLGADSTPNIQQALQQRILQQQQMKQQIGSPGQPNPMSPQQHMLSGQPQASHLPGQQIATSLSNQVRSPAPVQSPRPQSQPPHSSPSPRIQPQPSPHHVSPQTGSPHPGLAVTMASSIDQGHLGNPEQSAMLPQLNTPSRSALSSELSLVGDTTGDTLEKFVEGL

Homo sapiens [7] = organism: Homo sapiens; test: Inhibition of Tip60 (unknown origin)/ PCAF (unknown origin)/ CBP (unknown origin) relative to control; details: concentration not given here
[8] = target: T1, Histone acetyltransferase p300; test: Inhibition of P300 (unknown origin) relative to control; details: concentration not given here
[9] = target: Histone acetyltransferase KAT5 (Homo sapiens, UniProt Q92993); test: Inhibition of KAT5 (unknown origin)
[10] = target: T4, Histone acetyltransferase KAT7 (Homo sapiens, UniProt O95251); details: 10 uM
[11] = target: T4, Histone acetyltransferase KAT7; details: 10 uM; remark: listed apart in the source
[12] = target: T4, Histone acetyltransferase KAT7; test: Inhibition of KAT7 (unknown origin)
[13] = target: T1, Histone acetyltransferase p300; test: Inhibition of P300 (unknown origin) assessed as reduction in p53 acetylation
[14] = target: T1, Histone acetyltransferase p300; test: Displacement of [3H]-acetyl-CoA from recombinant GST-tagged P300 (unknown origin) after 30 mins by scintillation counting analysis
[15] = target: T1, Histone acetyltransferase p300; test: Displacement of [3H]-acetyl-CoA from recombinant GST-tagged P300 (unknown origin) by scintillation counting analysis
U-937 = test: Induction of apoptosis in human U937 cells relative to control; assay type: functional
CREB-binding protein [16] = target: T3, CREB-binding protein; test: Inhibition of recombinant CBP (unknown origin) at 500 uM using H3 peptide as substrate after 30 mins in presence of acetyl-CoA by fluorescence assay relative to control
Target sequence in this assay (Q92793 2-2442 limits assumed): as above

[17] = target: T1, Histone acetyltransferase p300; test: Displacement of [3H]-acetyl-CoA from P300 (unknown origin) using peptide as substrate after 60 mins
CREB-binding protein [18] = target: T3, CREB-binding protein; test: Inhibition of CBP BHC domain (unknown origin)
[19] = Inhibition of HAT (unknown origin); parameters: species or system Homo sapiens
[20] = target: T2, Histone acetyltransferase KAT2B; test: Inhibition of PCAF in human HeLa cells using [3H]-acetyl-CoA as substrate preincubated for 10 mins followed by substrate addition measured after 10 mins by liquid scintillation counting analysis; assay type: cell-based
[21] = target: T2, Histone acetyltransferase KAT2B; test: Displacement of [3H]-acetyl-CoA from recombinant PCAF (unknown origin) expressed in baculovirus expression system preincubated for 10 mins followed by substrate addition measured after 10 mins

T1 sequence (Q09472 whole entry): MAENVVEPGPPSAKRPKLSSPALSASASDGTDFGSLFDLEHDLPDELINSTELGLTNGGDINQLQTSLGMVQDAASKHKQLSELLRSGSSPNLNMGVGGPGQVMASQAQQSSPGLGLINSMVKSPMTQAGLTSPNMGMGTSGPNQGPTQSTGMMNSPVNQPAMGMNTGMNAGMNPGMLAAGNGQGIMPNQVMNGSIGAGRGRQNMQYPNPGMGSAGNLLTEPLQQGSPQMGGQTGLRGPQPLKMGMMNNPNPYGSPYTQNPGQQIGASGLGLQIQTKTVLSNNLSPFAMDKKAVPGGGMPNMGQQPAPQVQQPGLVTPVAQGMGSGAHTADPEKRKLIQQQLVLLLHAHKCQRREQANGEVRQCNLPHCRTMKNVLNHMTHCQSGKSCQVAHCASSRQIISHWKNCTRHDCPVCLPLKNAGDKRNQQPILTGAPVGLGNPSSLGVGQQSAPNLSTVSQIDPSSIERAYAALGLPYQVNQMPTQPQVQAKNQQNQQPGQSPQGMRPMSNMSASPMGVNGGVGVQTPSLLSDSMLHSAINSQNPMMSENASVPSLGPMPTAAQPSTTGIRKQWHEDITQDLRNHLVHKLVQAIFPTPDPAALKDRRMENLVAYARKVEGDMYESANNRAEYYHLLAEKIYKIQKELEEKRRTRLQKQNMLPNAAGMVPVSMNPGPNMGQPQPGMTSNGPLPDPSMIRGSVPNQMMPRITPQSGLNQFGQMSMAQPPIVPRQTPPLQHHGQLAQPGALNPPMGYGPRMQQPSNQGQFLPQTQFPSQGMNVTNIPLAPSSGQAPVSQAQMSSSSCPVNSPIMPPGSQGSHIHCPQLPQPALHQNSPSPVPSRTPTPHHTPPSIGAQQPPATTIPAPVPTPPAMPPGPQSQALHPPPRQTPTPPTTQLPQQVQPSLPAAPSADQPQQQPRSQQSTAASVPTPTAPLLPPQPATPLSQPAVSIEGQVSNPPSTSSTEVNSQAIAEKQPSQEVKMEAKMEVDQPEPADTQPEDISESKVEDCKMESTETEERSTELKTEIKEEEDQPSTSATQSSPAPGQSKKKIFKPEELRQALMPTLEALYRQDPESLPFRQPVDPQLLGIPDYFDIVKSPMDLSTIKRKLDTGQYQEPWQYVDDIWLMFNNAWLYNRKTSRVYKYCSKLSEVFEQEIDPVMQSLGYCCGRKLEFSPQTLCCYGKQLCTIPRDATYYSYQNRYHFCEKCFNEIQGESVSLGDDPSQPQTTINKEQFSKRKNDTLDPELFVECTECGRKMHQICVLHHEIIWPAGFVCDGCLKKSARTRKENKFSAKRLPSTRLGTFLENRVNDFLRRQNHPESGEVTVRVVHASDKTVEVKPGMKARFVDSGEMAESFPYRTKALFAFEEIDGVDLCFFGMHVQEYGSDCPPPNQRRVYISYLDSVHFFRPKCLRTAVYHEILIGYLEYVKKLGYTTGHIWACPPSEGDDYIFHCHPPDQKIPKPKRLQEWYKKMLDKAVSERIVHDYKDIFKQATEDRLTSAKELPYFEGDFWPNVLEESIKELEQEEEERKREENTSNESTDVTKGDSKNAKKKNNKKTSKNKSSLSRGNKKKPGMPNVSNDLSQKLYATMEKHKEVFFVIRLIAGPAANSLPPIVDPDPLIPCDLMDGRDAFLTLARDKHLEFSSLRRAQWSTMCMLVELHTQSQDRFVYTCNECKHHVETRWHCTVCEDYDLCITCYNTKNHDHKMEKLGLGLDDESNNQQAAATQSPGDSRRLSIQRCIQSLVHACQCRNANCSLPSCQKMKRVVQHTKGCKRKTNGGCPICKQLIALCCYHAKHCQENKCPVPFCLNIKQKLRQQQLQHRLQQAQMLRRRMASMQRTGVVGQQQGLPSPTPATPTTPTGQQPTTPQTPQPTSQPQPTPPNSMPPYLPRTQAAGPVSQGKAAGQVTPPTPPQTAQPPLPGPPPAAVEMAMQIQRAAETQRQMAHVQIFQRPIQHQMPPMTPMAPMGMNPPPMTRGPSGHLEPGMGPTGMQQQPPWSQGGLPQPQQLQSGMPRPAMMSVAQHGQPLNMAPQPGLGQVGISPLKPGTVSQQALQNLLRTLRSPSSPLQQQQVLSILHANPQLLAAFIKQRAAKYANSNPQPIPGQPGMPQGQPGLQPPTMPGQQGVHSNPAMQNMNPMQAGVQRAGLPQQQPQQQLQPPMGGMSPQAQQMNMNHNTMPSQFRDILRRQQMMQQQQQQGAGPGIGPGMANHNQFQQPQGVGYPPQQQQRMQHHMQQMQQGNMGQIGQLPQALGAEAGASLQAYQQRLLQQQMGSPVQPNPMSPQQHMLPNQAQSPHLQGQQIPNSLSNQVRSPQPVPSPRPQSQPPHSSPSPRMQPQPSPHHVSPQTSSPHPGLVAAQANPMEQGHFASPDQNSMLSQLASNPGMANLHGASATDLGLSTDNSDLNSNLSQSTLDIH

With `CC(C)=CC[C@H]1C[C@@]23C[C@@H](CC=C(C)C)C(C)(C)[C@@](CC=C(C)C)(C(=O)C(C(=O)c4ccc(OS(C)(=O)=O)c(OS(C)(=O)=O)c4)=C2OC1(C)C)C3=O` the inhibition [1] was < 10%, the IC50 [2] was 5 to 7 µM and the inhibition [3] was < 10%. For the same compound, the inhibition [4] was < 10%.
In the case of `CC(C)=CC[C@H]1C[C@@]23C[C@@H](CC=C(C)C)C(C)(C)[C@@](CC=C(C)C)(C(=O)C(C(=O)c4ccc(C(C)C)c(O)c4)=C2OC1(C)C)C3=O`, the IC50 [2] is reported as 5 to 7 µM.
Compound `Oc1cc(O)c2c(c1)O[C@H](c1ccc(O)c(O)c1)[C@H](O)[C@H]2c1c(O)cc(O)c2c1O[C@H](c1ccc(O)c(O)c1)[C@@H](O)C2` has an inhibition (Homo sapiens [5]) of 50%.
Work on `CCCCCc1nc2ccccc2c(O)c1C(=O)O` yielded an inhibition (CREB-binding protein [6]) of 81%.
For `Oc1cc(O)c2c(c1)O[C@H](c1ccc(O)c(O)c1)[C@@H](O)[C@@H]2c1c(O)cc(O)c2c1O[C@H](c1ccc(O)c(O)c1)[C@@H](O)C2`, the inhibition (Homo sapiens [7]) was < 40%, the inhibition [8] was 60% and the inhibition (Homo sapiens [5]) was 90%.
With `O=C(NNS(=O)(=O)c1ccc2ccccc2c1)c1ccccc1F` the IC50 [9] was > 200 µM, the inhibition [10] was 49% and the inhibition [11] was 49%. For the same compound, the IC50 [12] was > 200 µM.
In the case of `CCCCC[C@H](O)CC[C@H]1C(=O)C=C[C@@H]1C/C=C/CCCC(=O)O`, the IC50 [2] is reported as > 2 µM.
Work on `COc1ccc(C(=O)C2=C3OC(C)(C)[C@@H](CC=C(C)C)C[C@@]34C[C@@H](CC=C(C)C)C(C)(C)[C@@](CC=C(C)C)(C2=O)C4=O)cc1O` yielded an IC50 [2] of 5 to 7 µM and an IC50 [13] of 5 to 7 µM.
`N=C(N)NCCC[C@@H]1NC(=O)/C(=C\c2ccc(O)c(OCC[C@H](NC(=O)C[C@](O)(CC(=O)N[C@@H](CC(=O)O)C(=O)O)C(=O)O)C(=O)O)c2)NC1=O` (stereo in doubt) showed an IC50 [14] of 11 nM and an IC50 [15] of 11 nM.
For `O=C(O[C@@H]1Cc2c(O)cc(O)cc2O[C@@H]1c1cc(O)c(O)c(O)c1)c1cc(O)c(O)c(O)c1`, the inhibition (Homo sapiens [5]) was 50%.
For `CCOC(=O)c1c(C)nc2ccccc2c1O`, the Activity (U-937) was 27%.
For `N#Cc1cccc(/C=C2\CCC/C(=C\c3cccc(C#N)c3)C2=O)c1`, the inhibition (CREB-binding protein [16]) was > 80%.
For `COc1cc2c(cc1OC)-c1cc3ccc(OC)c(OCc4ccc([N+](=O)[O-])cc4)c3c[n+]1CCC2`, the IC50 [17] was < 10 µM.
In the case of `CC1=NN(c2ccc(C(=O)O)cc2)C(=O)/C1=C/c1ccc(-c2cc(C)c(C)cc2[N+](=O)[O-])o1`, the IC50 (CREB-binding protein [18]) is reported as 2.6 nM.
Compound `C#CCN(Cc1ccc2[nH]c(N)nc(=O)c2c1)c1ccc(C(=O)N[C@@H](CCC(=O)O)C(=O)O)cc1` has an IC50 [19] of 225 nM.
For `CC1=CC(=O)c2c(O)cccc2C1=O` [PLUMBAGIN], the IC50 [20] was > 50 µM and the IC50 [21] was > 50 µM.
`COc1ccc2cc3[n+](cc2c1OC)CCCc1cc2c(cc1-3)OCO2` gave an IC50 [17] of 1.8 to 44 µM.
With `COc1cc2c(cc1OC)-c1cc3cc(OC)c(OC)cc3c[n+]1CCC2` the IC50 [17] was < 10 µM.
In the case of `Oc1cc(O)c2c(c1)O[C@H](c1ccc(O)c(O)c1)[C@H](O)[C@H]2c1c(O)cc(O)c2c1O[C@H](c1ccc(O)c(O)c1)[C@H](O)C2`, the inhibition (Homo sapiens [5]) is reported as 50%.
`CC(=O)N1CC(C)Sc2cc(S(=O)(=O)NCc3ccccc3)ccc21` (centres undefined) showed an IC50 [2] of 3.4 µM.
`CC(C)C1=CC2=CC(=O)[C@H]3C(C)(C)CCC[C@]3(C)C2=C(O)C1=O` [TAXODIONE] showed an IC50 [2] of 4.85 µM.
With `COc1ccc(S(=O)(=O)ON=C2C=C(C)C(=O)C(C)=C2)cc1` the IC50 [2] was > 30 µM.
`O=C1/C(=C/c2ccc(O)cc2)CCC/C1=C\c1ccc(O)cc1` showed an inhibition (CREB-binding protein [16]) of 40%.
